Assay results reported in PubChem BioAssay (NCI).
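Five compound concentrations were applied to cells in 96-well plates for 48 hours; endpoints were derived by simple linear interpolation of the resulting dose-response curve. TGI is the concentration that stops growth completely.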

Key:
Test in all cases: NCI anticancer screen, dose series, 48 h
HL-60(TB) leukemia = system: HL-60(TB) leukemia
SN12C renal = system: SN12C renal
BT-549 breast = system: BT-549 breast
RXF 393 renal = system: RXF 393 renal
OVCAR-3 ovarian = system: OVCAR-3 ovarian
MOLT-4 leukemia = system: MOLT-4 leukemia
SK-OV-3 ovarian = system: SK-OV-3 ovarian
MDA-N = system: MDA-N
SF-295 CNS = system: SF-295 CNS
U251 CNS = system: U251 CNS
RPMI-8226 leukemia = system: RPMI-8226 leukemia
KM12 colon = system: KM12 colon
MCF7 breast = system: MCF7 breast
OVCAR-4 ovarian = system: OVCAR-4 ovarian
HCT-116 colon = system: HCT-116 colon
OVCAR-5 ovarian = system: OVCAR-5 ovarian
NCI-H23 lung = system: NCI-H23 lung
HCC-2998 colon = system: HCC-2998 colon
A498 renal = system: A498 renal

| SMILES | TGI (HL-60(TB) leukemia) [µM] | TGI (SN12C renal) [µM] | TGI (BT-549 breast) [µM] | TGI (RXF 393 renal) [µM] | TGI (OVCAR-3 ovarian) [µM] | TGI (MOLT-4 leukemia) [µM] | TGI (SK-OV-3 ovarian) [µM] | TGI (MDA-N) [µM] | TGI (SF-295 CNS) [µM] | TGI (U251 CNS) [µM] | TGI (RPMI-8226 leukemia) [µM] | TGI (KM12 colon) [µM] | TGI (MCF7 breast) [µM] | TGI (OVCAR-4 ovarian) [µM] | TGI (HCT-116 colon) [µM] | TGI (OVCAR-5 ovarian) [µM] | TGI (NCI-H23 lung) [µM] | TGI (HCC-2998 colon) [µM] | TGI (A498 renal) [µM] |
| --- | --- | --- | --- | --- | --- | --- | --- | --- | --- | --- | --- | --- | --- | --- | --- | --- | --- | --- | --- |
| Cn1nc(-c2ccccc2)c2c(-c3ccccc3)c3cc(Cl)ccc3nc21 | > 100 | > 100 | > 100 | > 100 | > 100 | > 100 | > 100 | > 100 | > 100 | > 100 | > 100 | > 100 | > 100 | > 100 | > 100 | > 100 | > 100 | > 100 | > 100 |
| COc1ccccc1NC(=O)C(=O)Cc1cnc2ccccc2n1 | > 100 | > 100 | > 100 | > 100 | > 100 | > 100 | > 100 | > 100 | > 100 | > 100 | > 100 | > 100 | > 100 | > 100 | > 100 | > 100 | > 100 | > 100 | > 100 |
| O=C1Nc2ccccc2/C1=C\c1c(-c2ccccc2)nc2n1CCS2 | 42.3 | 58.5 | 43.7 | 47.2 | 41.8 | 81 | 67.1 | 65 | 48.6 | 45.3 | 65.8 | 37.5 | 39.3 | > 100 | 49.2 | 58.5 | 66.3 | 34.8 | 68.8 |
| O=C(c1ccccc1)C(Nc1ccc2ccccc2c1)c1ccccc1 (stereo not drawn) | 36.4 | > 100 | > 100 | > 100 | 78.2 | > 75.6 | > 100 | > 100 | > 100 | > 100 | 33.7 | > 81.5 | > 100 | > 100 | > 100 | > 100 | > 100 | 56.6 | 69.6 |
| O=C(O)c1cccc(OCCOc2cccc(C(=O)O)c2[N+](=O)[O-])c1[N+](=O)[O-] | > 100 | > 100 | > 100 | > 100 | > 100 | > 100 | > 100 | > 100 | > 100 | > 100 | > 100 | > 100 | > 100 | > 100 | > 100 | > 100 | > 100 | > 100 | > 100 |
| COC(=O)CC(CNC(=O)OCc1ccccc1)OCc1ccc(OC)cc1 (stereo not drawn) | > 100 | > 100 | > 100 | > 100 | > 100 | > 100 | > 100 | > 100 | > 100 | > 100 | > 100 | > 100 | > 100 | > 100 | > 100 | > 100 | > 100 | > 100 | > 100 |
| CC[C@@H]1CC[C@@H]2[C@H](CC[C@]3(C)[C@@H](OC(C)=O)CC[C@@H]23)[C@H]1C(=O)OC | 31.3 | 69.9 | > 100 | 49.8 | 34.4 | 42 | > 100 | 41.4 | 46.6 | 43.3 | 46.5 | 52.1 | 60.3 | 52.8 | 33.7 | 59.5 | 59.6 | > 100 | > 100 |
